In patent publication US20010055590A1, “Method for enhancing myoblast migration and invasion in the context of gene therapy” (priority 1999, published 2001):

System: MMP-1
Assay: Gelatin zymography of mouse myoblast culture medium, MMP-1
Type: cell-based
Settings: mouse myoblasts
Method: Gelatin zymography for assaying MMPs was carried out as previously described (Guerin and Holland “Synthesis and secretion of matrix-degrading metalloproteinases by human skeletal muscle satellite cells” Devel. Dynamics 202:91-99,1995) with minor modifications. Briefly, myoblasts were grown in 6 cm tissue culture plates to approximately 70% confluence, then rinsed three times with serumfree DMEM and incubated for 3 hours in DMEM containing 0.2% BSA to eliminate the effects of serum. Growth factors were added and cells were incubated for 24 hours. Culture medium was then collected, centrifuged to pellet detached cells, and concentrated ten-to twenty-fold using the Centricon-10 (Amicon, Beverly, Mass.) system. The protein concentration of the supernatants was determined using the Bio-Rad protein microassay system with BSA used as the standard. Samples were stored at −70° C. until use. For gelatin zymography, aliquots (10 μg as the total protein per sample) were electrophoresed at constant voltage on a 10% polyacrylamide gel containing 2 mg/ml gelatin. […] Proteinase activity was quantified by densitometric scanning of bands using a Bio-Rad Gel Doc 1000 video camera imaging system (Bio Rad, Hercules, Calif.). […]

human serum fibronectin
MMP-1 expression (57 kDa): does not significantly affect
